Test results reported in paper PMC9501129 (Pharmaceutics, 2022).
Where two headings read alike, the source gives them in different places.

Legend:
[1] = cited from earlier work
pregnant rabbits = conditions: cited from earlier work
pregnant rats [2] = conditions: BIC orally 5, 30, or 300 mg/kg/day, gestational day 7 through 17; cited from earlier work
pregnant rats [3] = conditions: BIC orally up to 300 mg/kg/day, gestational day 6 to lactation/postpartum day 24; cited from earlier work
[4] = ex-vivo dually perfused human cotyledon; cited from earlier work
[5] = Amniotic fluid drug concentration in mouse pregnancy model (HPLC-MSMS); format: in vivo, C57BL/6J mice; conditions: female, C57BL/6J, mouse, amniotic fluid / maternal plasma, oral, pregnant mice
Excerpt: All animal experiments were approved by the University Health Network Animal Use Committee (protocol #2575) and performed according to the policies and guidelines of the Canadian Council on Animal Care. C57BL/6J mice bred in-house (original breeders from Jackson Laboratory RRID:IMSR JAX:000664) were maintained under a 12-h light/dark cycle, with ad libitum access to food and water. Animals were acclimated to their surroundings for 1 week prior to experiment initiation. Males were isolated for 7 days prior to mating. Female mice (7–12 weeks of age) were mated with males at a ratio of 2:1. Presence of vaginal plug was denoted as gestational day 0.5 (GD0.5). Pregnancy was confirmed by weight gain of >1.5 g on GD9.5 and >3 g on GD13.5. […] The equivalent mouse mg/kg dose was calculated based on the human dose divided by an assumed average human weight of 60 kg. […] On GD15.5, mice underwent saphenous bleed 24 h after the GD14.5 dose administration (trough). Immediately after the saphenous bleed, mice were dosed with the appropriate drug regimen and sacrificed 1 h post-treatment (peak), at which time blood was collected by cardiac puncture and amniotic fluid was collected by dissecting the uterus, puncturing the amniotic sac, and draining the amniotic fluid into a sterile dish. Amniotic fluid was pooled for the entire litter. Samples from 2 dams per arm were analyzed for drug levels.
Briefly, 50 μL of plasma or amniotic fluid was spiked with internal standard (ritonavir-d6) followed by protein precipitation with acetonitrile and filtration. Filtrates were diluted 1:9 with ammonium acetate buffer (10 mM) and analyzed by the HPLC-MSMS system, consisting of a Shimadzu Nexera XR high-performance liquid chromatograph (Shimadzu, Columbia, MD, USA) coupled with a SCIEX API 4500 QqQ mass spectrometer (SCIEX, Concord, ON, Canada). Chromatographic separation by Mobile Phase A (10% methanol, 5% 50 mM ammonium acetate, 85% 0.25% acetic acid pH 3.6 ± 0.2) and Mobile Phase B (90% methanol, 5% 50 mM ammonium acetate, 5% 0.25% acetic acid pH 6.6 ± 0.2) was performed under linear gradient conditions (flow rate 0.7 mL/min) on a reverse-phase Zorbax XDB-C18 column (Agilent Technologies, Santa Clara, CA, USA) maintained at 40 °C. […] HPLC-MSMS data were acquired using Analyst (v 1.6.3, SCIEX, Concord, ON, Canada) and analyzed with MultiQuant software (v 3.0.3, SCIEX, Concord, ON, Canada). […] Positive controls spiked in-house and prepared by an external laboratory during a sample exchange program were included in all runs.

HIV = conditions: compared to RAL and EVG; cited from earlier work

Row | Compound | Drug levels in pregnancy ([1]; second and third trimester) | Maternal and pregnancy findings (pregnant rabbits; BIC 1000 mg/kg/day) | Embryo-fetal effects (pregnant rabbits; BIC orally 100, 300, or 1000 mg/kg/day, gestational day 7 through 19) | Embryo-fetal effects (pregnant rats [2]) | Adverse effects in fetuses or pups (pregnant rats [3]) | Placental transfer [4] | Kp at 1 h ([5]; 1× to 10× BIC, 1 h after dosing, read-out: Ratio of drug in the amniotic fluid to that in maternal plasma) | Kp at 1 h ([5]; 20× BIC dose, 1 h after dosing, read-out: Ratio of drug in the amniotic fluid to that in maternal plasma) | Kp at 1 h ([5]; BIC 0.83 mg/kg (1×) oral gavage once daily GD11.5-GD15.5 with TDF 50 mg/kg + FTC 33.3 mg/kg, mean (SD), n=2, read-out: Amniotic: Maternal Plasma Ratio 1 h) | Kp at 1 h ([5]; BIC 4.15 mg/kg (5×) oral gavage once daily GD11.5-GD15.5 with TDF 50 mg/kg + FTC 33.3 mg/kg, mean (SD), n=2, read-out: Amniotic: Maternal Plasma Ratio 1 h) | Kp at 1 h ([5]; BIC 8.3 mg/kg (10×) oral gavage once daily GD11.5-GD15.5 with TDF 50 mg/kg + FTC 33.3 mg/kg, mean (SD), n=2, read-out: Amniotic: Maternal Plasma Ratio 1 h) | Kp at 1 h ([5]; BIC 16.6 mg/kg (20×) oral gavage once daily GD11.5-GD15.5 with TDF 50 mg/kg + FTC 33.3 mg/kg, mean (SD), n=2, read-out: Amniotic: Maternal Plasma Ratio 1 h) | In vitro resistance profile (HIV) | Birth defects observed ([1]; interim report, 140 pregnancies in women treated with BIC during periconception or pregnancy) | Virological suppression through delivery ([1]; two pregnant women on BIC)
1 | COc1cc2c(cc1Cc1cccc(Cl)c1F)c(=O)c(C(=O)O)cn2[C@H](CO)C(C)C [EVG, elvitegravir] | inadequate levels in the second and third trimester |  |  |  |  |  |  |  |  |  |  |  |  |  | 
2 | O=C(NCc1c(F)cc(F)cc1F)c1cn2c(c(O)c1=O)C(=O)N1[C@H]3CC[C@H](C3)O[C@@H]1C2 [BIC, bictegravir] |  | Spontaneous abortion, decreased body weight, and maternal toxicity | no adverse embryo-fetal effects | no adverse embryo-fetal effects | no significant adverse effects in fetuses or pups | low placental transfer | 0.021 to 0.036 | 0.112 | 0.021 | 0.021 | 0.036 | 0.112 | improved in vitro resistance profile | three | remained virologically suppressed through delivery
